Test results: patent US20240245682A1, “ALPHA-V-BETA-8 INTEGRIN INHIBITORS AND USES THEREOF” (Pliant Therapeutics, Inc., priority 2022, published 2024)

What was measured:
Assay in all cases: AlphaScreen proximity-based integrin binding assay with TGF-b1 LAP
Conditions in all cases: values given as ranges
[1] = target: human integrin αVβ1 (Homo sapiens, UniProt P05556+P06756)
Method in brief: (§1)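 Purified human integrin incubated with compound, TGF-b1 LAP, biotinylated anti-LAP antibody and acceptor beads for 2 h, then streptavidin donor beads 30 min, room temperature, in 50 mM Tris-HCl pH 7.5, 0.1% BSA, 1 mM CaCl2/MgCl2. AlphaScreen signal (680 nm excitation, 520-620 nm emission); IC50 by four-parameter fit.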

[2] = target: human integrin αVβ8 (Homo sapiens, UniProt P06756+P26012)
Sequence of human integrin αVβ8 (P06756 31-992 limits assumed): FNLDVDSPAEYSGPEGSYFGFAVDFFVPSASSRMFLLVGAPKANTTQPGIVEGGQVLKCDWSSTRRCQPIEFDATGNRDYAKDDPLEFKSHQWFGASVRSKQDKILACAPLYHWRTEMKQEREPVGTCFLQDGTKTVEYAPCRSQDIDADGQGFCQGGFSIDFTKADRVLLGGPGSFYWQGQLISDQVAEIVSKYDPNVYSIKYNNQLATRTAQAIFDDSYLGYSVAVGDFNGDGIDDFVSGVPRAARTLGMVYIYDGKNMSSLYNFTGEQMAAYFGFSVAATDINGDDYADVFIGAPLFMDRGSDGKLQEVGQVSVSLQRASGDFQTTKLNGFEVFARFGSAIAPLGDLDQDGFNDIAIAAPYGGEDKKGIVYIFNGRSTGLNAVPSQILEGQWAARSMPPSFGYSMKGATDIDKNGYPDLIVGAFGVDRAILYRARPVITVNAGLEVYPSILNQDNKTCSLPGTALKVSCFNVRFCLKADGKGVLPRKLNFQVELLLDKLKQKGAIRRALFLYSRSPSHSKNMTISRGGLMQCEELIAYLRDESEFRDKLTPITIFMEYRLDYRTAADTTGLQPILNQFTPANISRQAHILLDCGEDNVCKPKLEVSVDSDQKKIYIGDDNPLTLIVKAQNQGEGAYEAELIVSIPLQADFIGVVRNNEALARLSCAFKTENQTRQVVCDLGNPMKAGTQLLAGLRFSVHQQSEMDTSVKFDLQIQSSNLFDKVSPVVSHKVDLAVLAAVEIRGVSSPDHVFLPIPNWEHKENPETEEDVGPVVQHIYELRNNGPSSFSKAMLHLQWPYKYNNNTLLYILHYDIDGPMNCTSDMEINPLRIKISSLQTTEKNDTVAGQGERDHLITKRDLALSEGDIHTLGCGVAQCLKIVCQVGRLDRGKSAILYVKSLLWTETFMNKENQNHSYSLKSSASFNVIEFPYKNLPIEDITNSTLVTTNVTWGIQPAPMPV
Sequence of human integrin αVβ8 (P26012 43-684 limits assumed): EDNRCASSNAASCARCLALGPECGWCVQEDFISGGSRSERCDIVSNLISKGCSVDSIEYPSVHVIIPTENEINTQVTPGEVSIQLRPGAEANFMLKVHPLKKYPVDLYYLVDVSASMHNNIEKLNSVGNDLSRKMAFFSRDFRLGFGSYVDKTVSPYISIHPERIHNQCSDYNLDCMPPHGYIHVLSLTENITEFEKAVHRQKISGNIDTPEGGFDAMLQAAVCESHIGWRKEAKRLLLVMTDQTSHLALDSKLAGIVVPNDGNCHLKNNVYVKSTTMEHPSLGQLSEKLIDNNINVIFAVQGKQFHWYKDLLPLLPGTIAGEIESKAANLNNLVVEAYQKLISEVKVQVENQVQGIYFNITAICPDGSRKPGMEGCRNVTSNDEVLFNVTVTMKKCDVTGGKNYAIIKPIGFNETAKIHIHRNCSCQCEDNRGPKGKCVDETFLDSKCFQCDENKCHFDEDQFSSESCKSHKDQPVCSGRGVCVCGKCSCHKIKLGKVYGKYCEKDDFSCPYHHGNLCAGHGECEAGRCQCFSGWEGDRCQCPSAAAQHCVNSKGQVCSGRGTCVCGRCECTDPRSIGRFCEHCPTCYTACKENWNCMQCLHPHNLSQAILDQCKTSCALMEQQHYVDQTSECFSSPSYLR
Method in brief: as §1

[3] = target: human integrin αVβ6 (Homo sapiens, UniProt P06756+P18564)
Sequence of human integrin αVβ6 (P06756 31-992 limits assumed): as the sequence (P06756 31-992 limits assumed) above
Sequence of human integrin αVβ6 (P18564 22-707 limits assumed): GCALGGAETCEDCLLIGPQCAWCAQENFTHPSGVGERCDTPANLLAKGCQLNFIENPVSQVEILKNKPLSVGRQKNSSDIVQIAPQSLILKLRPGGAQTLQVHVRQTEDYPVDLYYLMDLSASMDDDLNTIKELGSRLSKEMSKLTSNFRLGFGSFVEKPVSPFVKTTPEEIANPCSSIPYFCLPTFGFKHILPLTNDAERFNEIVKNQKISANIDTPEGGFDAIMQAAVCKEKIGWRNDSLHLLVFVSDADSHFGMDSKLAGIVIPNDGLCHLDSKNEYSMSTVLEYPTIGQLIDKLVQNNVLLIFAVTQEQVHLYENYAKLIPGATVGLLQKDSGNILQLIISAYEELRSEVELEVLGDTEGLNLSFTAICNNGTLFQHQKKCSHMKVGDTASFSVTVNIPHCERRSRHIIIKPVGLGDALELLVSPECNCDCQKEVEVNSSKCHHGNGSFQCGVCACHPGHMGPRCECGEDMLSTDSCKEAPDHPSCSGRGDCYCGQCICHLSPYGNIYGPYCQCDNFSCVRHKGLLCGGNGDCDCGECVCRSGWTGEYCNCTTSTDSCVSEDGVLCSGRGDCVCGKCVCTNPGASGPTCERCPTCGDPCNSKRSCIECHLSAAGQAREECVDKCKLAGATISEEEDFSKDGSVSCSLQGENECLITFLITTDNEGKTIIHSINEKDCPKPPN
Method in brief: as §1

Sequence of human integrin αVβ1 (P06756 31-992 limits assumed): as the sequence (P06756 31-992 limits assumed) above
Sequence of human integrin αVβ1 (P05556 21-728 limits assumed): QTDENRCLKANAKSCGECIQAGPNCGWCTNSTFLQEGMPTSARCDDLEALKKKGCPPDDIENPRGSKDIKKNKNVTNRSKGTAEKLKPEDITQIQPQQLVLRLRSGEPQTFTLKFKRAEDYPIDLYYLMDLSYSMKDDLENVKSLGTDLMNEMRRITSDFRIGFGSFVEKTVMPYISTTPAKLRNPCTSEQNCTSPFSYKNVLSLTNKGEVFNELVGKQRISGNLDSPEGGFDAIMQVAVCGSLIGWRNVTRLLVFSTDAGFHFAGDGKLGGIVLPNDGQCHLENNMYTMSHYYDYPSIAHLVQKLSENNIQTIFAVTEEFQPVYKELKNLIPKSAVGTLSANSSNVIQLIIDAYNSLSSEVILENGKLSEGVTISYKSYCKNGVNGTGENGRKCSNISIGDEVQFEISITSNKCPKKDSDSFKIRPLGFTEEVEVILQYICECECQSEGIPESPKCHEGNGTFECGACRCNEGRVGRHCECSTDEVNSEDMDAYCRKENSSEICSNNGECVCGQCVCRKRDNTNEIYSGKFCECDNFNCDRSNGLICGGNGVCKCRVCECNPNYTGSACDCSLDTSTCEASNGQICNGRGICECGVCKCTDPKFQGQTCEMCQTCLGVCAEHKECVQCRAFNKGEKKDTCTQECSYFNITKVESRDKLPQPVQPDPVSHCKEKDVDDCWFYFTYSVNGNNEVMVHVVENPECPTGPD

In the case of `O=C(O)[C@H](CCOCCCCc1ccc2c(n1)NCCC2)NC(=O)C1(C(F)(F)F)CCN(CC(F)(F)F)CC1` [Compound 96, O-(4-(5,6,7,8-tetrahydro-1,8-naphthyridin-2-yl)butyl)-N-(1-(2,2,2-trifluoroethyl)-4-(trifluoromethyl)piperidine-4-carbonyl)-L-homoserine], the IC50 [1] is reported as < 50 nM, the IC50 [2] is reported as < 50 nM and the IC50 [3] is reported as > 500 nM.
`O=C(O)[C@H](CCOCCCCc1ccc2c(n1)NCCC2)NC(=O)C1(c2ncncc2Cl)CC1` [Compound 49, N-(1-(5-chloropyrimidin-4-yl)cyclopropane-1-carbonyl)-O-(4-(5,6,7,8-tetrahydro-1,8-naphthyridin-2-yl)butyl)-L-homoserine] was tested, and the IC50 [1] was < 50 nM, the IC50 [2] was < 50 nM and the IC50 [3] was ≥ 500 nM.
In the case of `N#Cc1cccc(F)c1C1(C(=O)N[C@@H](CCOCCCCc2ccc3c(n2)NCCC3)C(=O)O)CC1` [Compound 37, N-(1-(2-cyano-6-fluorophenyl)cyclopropane-1-carbonyl)-O-(4-(5,6,7,8-tetrahydro-1,8-naphthyridin-2-yl)butyl)-L-homoserine], the IC50 [1] is reported as < 50 nM, the IC50 [2] is reported as < 50 nM and the IC50 [3] is reported as 250 to 500 nM.
`O=C(O)[C@H](CCOCCCCc1ccc2c(n1)NCCC2)NC(=O)C1(c2c(Cl)cn[nH]c2=O)CC1` [Compound 76, N-(1-(5-chloro-3-oxo-2,3-dihydropyridazin-4-yl)cyclopropane-1-carbonyl)-O-(4-(5,6,7,8-tetrahydro-1,8-naphthyridin-2-yl)butyl)-L-homoserine] was tested, and the IC50 [1] was < 50 nM, the IC50 [2] was < 50 nM and the IC50 [3] was ≥ 500 nM.
In the case of `O=C(O)[C@H](CCOCCCCc1ccc2c(n1)NCCC2)NC(=O)C1(c2c(Cl)cccc2Cl)CC1` [Compound 7, N-(1-(2,6-dichlorophenyl)cyclopropane-1-carbonyl)-O-(4-(5,6,7,8-tetrahydro-1,8-naphthyridin-2-yl)butyl)-L-homoserine], the IC50 [1] is reported as < 50 nM, the IC50 [2] is reported as < 50 nM and the IC50 [3] is reported as ≥ 500 nM.
For `O=C(Cc1ccccc1)N[C@@H](CCOCCCCc1ccc2c(n1)NCCC2)C(=O)O` [Compound 81, N-(2-phenylacetyl)-O-(4-(5,6,7,8-tetrahydro-1,8-naphthyridin-2-yl)butyl)-L-homoserine], the IC50 [1] was < 50 nM, the IC50 [2] was 50 to 150 nM and the IC50 [3] was ≥ 500 nM.
For `O=C(O)[C@H](CCOCCCCc1ccc2c(n1)NCCC2)NC(=O)C1(n2ccnc2C(F)(F)F)CC1` [Compound 70, O-(4-(5,6,7,8-tetrahydro-1,8-naphthyridin-2-yl)butyl)-N-(1-(2-(trifluoromethyl)-1H-imidazol-1-yl)cyclopropane-1-carbonyl)-L-homoserine], the IC50 [1] was < 50 nM, the IC50 [2] was < 50 nM and the IC50 [3] was ≥ 500 nM.
With `COc1cccc(C2(C(=O)N[C@@H](CCOCCCCc3ccc4c(n3)NCCC4)C(=O)O)CC2)n1` [Compound 18, N-(1-(6-methoxypyridin-2-yl)cyclopropane-1-carbonyl)-O-(4-(5,6,7,8-tetrahydro-1,8-naphthyridin-2-yl)butyl)-L-homoserine] the IC50 [1] was 50 to 150 nM, the IC50 [2] was < 50 nM and the IC50 [3] was ≥ 500 nM.
With `CS(=O)(=O)c1ccccc1C1(C(=O)N[C@@H](CCOCCCCc2ccc3c(n2)NCCC3)C(=O)O)CC1` [Compound 46, N-(1-(2-(methylsulfonyl)phenyl)cyclopropane-1-carbonyl)-O-(4-(5,6,7,8-tetrahydro-1,8-naphthyridin-2-yl)butyl)-L-homoserine] the IC50 [1] was 50 to 150 nM, the IC50 [2] was 250 to 500 nM and the IC50 [3] was ≥ 500 nM.
`O=C(O)[C@H](CCOCCCCc1ccc2c(n1)NCCC2)NC(=O)C1(c2ccccc2F)CC1` [Compound 9, N-(1-(2-fluorophenyl)cyclopropane-1-carbonyl)-O-(4-(5,6,7,8-tetrahydro-1,8-naphthyridin-2-yl)butyl)-L-homoserine] was tested, and the IC50 [1] was < 50 nM, the IC50 [2] was < 50 nM and the IC50 [3] was ≥ 500 nM.
For `O=C(O)[C@H](CCOCCCCc1ccc2c(n1)NCCC2)NC(=O)C1(n2c(=O)ccc3ccccc32)CC1` [Compound 90, N-(1-(2-oxoquinolin-1(2H)-yl)cyclopropane-1-carbonyl)-O-(4-(5,6,7,8-tetrahydro-1,8-naphthyridin-2-yl)butyl)-L-homoserine], the IC50 [1] was 50 to 150 nM, the IC50 [2] was < 50 nM and the IC50 [3] was > 500 nM.
